Measurements published in article PMC4454674, “Functional Coupling of Duplex Translocation to DNA Cleavage in a Type I Restriction Enzyme” (PLoS ONE, 2015).

Biological target: T1, EcoR124I (HsdR reconstituted with HsdS-HsdM2 methylase) (Escherichia coli, UniProt P10486)
T1 construct: holoenzyme reconstituted from purified HsdR (pTrcR124) and EcoR124I methylase HsdS-HsdM2 (pJS4M, JM109(DE3)), on plasmid DNA with one site; with Type I restriction enzyme EcoR124I/EcoR124II methylase subunit; Type I restriction enzyme EcoR124I specificity subunit
T1 sequence (P10486 1-1038): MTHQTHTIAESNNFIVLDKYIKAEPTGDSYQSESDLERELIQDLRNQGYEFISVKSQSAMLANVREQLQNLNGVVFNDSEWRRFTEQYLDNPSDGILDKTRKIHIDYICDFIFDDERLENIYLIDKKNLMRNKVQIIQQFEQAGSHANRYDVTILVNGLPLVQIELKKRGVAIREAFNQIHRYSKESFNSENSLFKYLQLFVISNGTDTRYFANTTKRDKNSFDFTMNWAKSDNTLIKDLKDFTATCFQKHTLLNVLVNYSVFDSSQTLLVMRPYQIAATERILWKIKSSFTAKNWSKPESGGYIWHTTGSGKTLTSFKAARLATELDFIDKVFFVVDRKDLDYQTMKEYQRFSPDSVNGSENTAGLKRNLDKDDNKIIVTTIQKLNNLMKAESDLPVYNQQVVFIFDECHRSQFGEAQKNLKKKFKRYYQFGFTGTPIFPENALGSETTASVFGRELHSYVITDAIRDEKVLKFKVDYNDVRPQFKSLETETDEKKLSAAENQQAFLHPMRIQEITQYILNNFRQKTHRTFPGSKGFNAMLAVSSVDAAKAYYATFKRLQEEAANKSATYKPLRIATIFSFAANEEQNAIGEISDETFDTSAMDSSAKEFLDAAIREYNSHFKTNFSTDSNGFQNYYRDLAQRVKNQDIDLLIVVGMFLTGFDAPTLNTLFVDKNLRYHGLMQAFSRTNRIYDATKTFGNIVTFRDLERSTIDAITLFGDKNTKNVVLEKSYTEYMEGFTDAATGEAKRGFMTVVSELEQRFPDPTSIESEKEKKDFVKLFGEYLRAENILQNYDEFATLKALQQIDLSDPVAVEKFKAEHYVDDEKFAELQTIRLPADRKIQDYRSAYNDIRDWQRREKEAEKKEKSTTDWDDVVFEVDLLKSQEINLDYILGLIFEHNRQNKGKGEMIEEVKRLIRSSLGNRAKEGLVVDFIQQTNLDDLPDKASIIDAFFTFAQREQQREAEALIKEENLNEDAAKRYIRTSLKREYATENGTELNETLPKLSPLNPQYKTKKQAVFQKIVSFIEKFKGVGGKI
T1 sequence (P10485 1-404 partner): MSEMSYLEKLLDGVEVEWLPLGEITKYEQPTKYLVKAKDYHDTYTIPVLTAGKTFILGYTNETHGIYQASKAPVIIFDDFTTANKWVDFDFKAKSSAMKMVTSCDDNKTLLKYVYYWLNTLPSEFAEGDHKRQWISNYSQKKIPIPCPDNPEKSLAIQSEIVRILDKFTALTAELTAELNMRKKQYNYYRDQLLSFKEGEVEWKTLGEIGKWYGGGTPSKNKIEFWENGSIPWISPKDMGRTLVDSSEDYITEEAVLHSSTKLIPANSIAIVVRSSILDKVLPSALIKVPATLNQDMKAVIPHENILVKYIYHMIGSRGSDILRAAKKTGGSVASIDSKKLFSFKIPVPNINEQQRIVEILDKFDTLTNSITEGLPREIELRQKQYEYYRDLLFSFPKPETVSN
T1 sequence (P10484 1-520 partner): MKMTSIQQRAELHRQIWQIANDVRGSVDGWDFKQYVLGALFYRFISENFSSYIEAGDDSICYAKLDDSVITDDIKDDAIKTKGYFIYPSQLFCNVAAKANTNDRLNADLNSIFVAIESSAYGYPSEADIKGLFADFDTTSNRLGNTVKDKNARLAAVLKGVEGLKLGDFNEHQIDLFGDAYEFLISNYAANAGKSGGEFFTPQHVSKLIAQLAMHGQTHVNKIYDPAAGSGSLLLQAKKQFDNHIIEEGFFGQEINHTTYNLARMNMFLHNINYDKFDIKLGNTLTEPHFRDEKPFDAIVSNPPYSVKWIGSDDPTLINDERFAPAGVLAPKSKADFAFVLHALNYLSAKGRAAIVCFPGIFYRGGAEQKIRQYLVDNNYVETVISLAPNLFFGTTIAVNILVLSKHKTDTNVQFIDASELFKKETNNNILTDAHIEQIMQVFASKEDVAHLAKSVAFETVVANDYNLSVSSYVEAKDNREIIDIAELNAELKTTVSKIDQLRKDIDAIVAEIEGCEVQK
Test: DNA-dependent ATPase, gamma-32P-ATP with TLC
Type: biochemical
Conditions: 2 mM ATP; 15 nM methylase, 90 nM HsdR, 90 nM plasmid DNA; 10 mM MgCl2; pH 7.9; 37 C; turnover only; gamma-32P-ATP tracer

## Nc1ncnc2c1ncn2[C@@H]1O[C@H](COP(=O)(O)OP(=O)(O)OP(=O)(O)O)[C@@H](O)[C@H]1O [ATP]
  DNA-dependent ATPase, gamma-32P-ATP with TLC: The results for the WT enzyme reproduce its previously reported ATPase activity
